One experiment deals with TG-5. Briefly: Western blot of TG proteins in mouse scleral fibroblasts after muscarinic agents. The format is cell-based. The settings on record: 0.01-10 μM for 5 days. For orientation: A western blot detects proteins with antibodies after separation by electrophoresis.
Another experiment has as its system TG-1. Briefly: Western blot of TG proteins in human scleral fibroblasts after muscarinic agents. Type of experiment: cell-based. To be noted: 0.01-10 μM for 5 days.
The target in the next experiment is T1, hM5 (Homo sapiens, UniProt P08912).
T1 sequence (P08912 1-532): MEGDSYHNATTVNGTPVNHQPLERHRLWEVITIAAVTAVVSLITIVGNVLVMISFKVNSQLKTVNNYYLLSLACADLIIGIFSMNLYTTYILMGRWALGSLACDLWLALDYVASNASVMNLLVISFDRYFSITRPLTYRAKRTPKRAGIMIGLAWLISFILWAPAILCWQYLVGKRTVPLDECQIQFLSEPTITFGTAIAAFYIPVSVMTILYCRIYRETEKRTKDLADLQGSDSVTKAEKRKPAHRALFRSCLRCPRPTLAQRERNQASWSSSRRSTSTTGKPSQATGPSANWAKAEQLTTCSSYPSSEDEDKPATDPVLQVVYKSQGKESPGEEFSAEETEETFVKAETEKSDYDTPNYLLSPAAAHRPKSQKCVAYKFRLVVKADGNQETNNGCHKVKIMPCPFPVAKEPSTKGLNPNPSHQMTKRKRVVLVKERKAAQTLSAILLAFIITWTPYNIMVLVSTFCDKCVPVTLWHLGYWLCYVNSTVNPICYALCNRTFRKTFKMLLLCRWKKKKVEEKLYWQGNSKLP
Put plainly: himbacine binding to cloned muscarinic receptor subtypes. The settings on record: cloned receptor subtype; data not shown.

pKd: −log10 of the molar value.

Regarding `CN1[C@@H]2CC[C@H]1C[C@@H](OC(=O)C(CO)c1ccccc1)C2` (stereo partly drawn) [atropine], the TG-5 protein level entry in the experiment on TG-5 is recorded as “reduced”. Also, in the experiment with TG-1, the TG-1 protein level result is on record as “reduced”. By pKd is commonly meant the Kd on a negative log10 scale, so that one unit is a factor of ten. Low readings indicate a high Kd, high ones a low Kd. Turning to `C[C@@H]1OC(=O)[C@H]2C[C@H]3CCCC[C@@H]3[C@@H](/C=C/[C@H]3CCC[C@H](C)N3C)[C@@H]12` [himbacine], the pKd at hM5 is 6.53.

Source of the values: patent publication US20140050779A1, “[…]-2 INHIBITORS AND USES THEREOF” (SINGAPORE HEALTH SERVICES PTE. LTD., priority 2011, published 2014).
